Measurements from US20140227408A1, “MEAT TREATMENT AND PRESERVATION METHOD” (RED MEAT AS, priority 2011, published 2014).
Marks after values point to notes of the source that are not given here.

Tests used:
[1] = tested on: myoglobin in ground beef; assay: Myoglobin states (DMb, OMb, MMb) by reflectance spectra of treated ground beef, high oxygen packaging (Example 5); set-up: species or system cattle; conditions: for DMb / MMb / OMb: citrate High level, high oxygen, adjusted mean ± standard error
Excerpt: (§1) Beef M. semimembranosus (M.S.) and beef fat tissue were collected four days post mortem (Fatland A/S, Oslo, Norway). The packaging day is defined as day zero, however, the tissues were 4 days post mortem on packing day. A piece of meat from proximal end was cut from each muscle in order to measure oxygen consumption, pH and surface colour. Fat tissue from pigs fed rapeseed and vitamin E to enhance the content of polyunsaturated fatty acids were from HKScan (Ruokatalo, Finland). The fat tissue was transported vacuum-packaged and frozen. Samples of minced fat tissue were removed for fatty acid analysis.
The beef muscles were cut into pieces of approximately 10×5 cm and mixed to 14% w/w fat by using the fat tissues. Beef fat and pork fat tissues were ground twice with either raw beef from four young (16-19 months) or four old (46-81 months) cattle. The meat had pH of 5.65 and was ground with a Seydelmann ME-130 (Seydelmann, Stuttgart, Germany) grinder through a plate with 3 mm openings. The ground meat was blended manually with solutions (all at pH 5.8) with various TCA and glycolytic ingredients (see below).
(§2) To maintain pH at 5.8 the solutions were prepared by mixing the acid form and the corresponding sodium salt of these chemicals.
40 g of 0.1 M or 0.05 M solutions were added to ground beef-fat mixture (360 g) to a total weight of 400 g. The solution was quickly and properly stirred into the minced meat and the blended system was subsequently packaged. […] Two reference samples with 40 ml of distilled water added to 360 gram of ground beef were also prepared each of the four production day, i.e. altogether 8 references were prepared. The samples were packaged in either low or high oxygen atmosphere.
(§3) The ground beef was packaged in black amorphous polyethylene terephthalate (APET) trays that were sealed with ethylene vinyl alcohol (EVOH) top films. The trays and films (Wipak Multipet and Wipak Biaxer, both Wipak, Nastola, Finland) had oxygen transmission rates of 7 and 5 cm^3/m^2/24 h at 23° C. at 50% relative humidity. Packaging was carried out within 1 hour after grinding. The samples were stored in darkness at 4° C. for 8 days in a high-oxygen atmosphere (75% oxygen and 25% CO2) and for 13 days in a low-oxygen atmosphere (60% CO2 and 40% N2). These food grade gas mixtures were supplied by AGA (Oslo, Norway).
Samples were scanned, […], with a Foss NIRSystems OptiProbe™ 6500 Analyzer (Foss NIRSystems Inc., Maryland, USA) without opening of the package. The package was turned upside-down before measurements so that the meat would fall on the packaging film. The samples were scanned with three random placements of the probe on the package surface in order to increase the scanning area and reduce the measurement errors. Thirty-two scans for both reference and samples were acquired and averaged on each measured area. All measurements were performed at room temperature (approx. 20° C.) according to Khatri, et al. (Meat Sci. (2012) 91(3): 223-231). These spectra were used to predict OMb, MMb and DMb levels. Calibration was performed using comminuted meat with 10% w/w added water.
(§4) The colour of the samples packaged in high O2 was measured after 0, 1, 3, 6 and 8, days of storage from packaging day, while low O2 samples were measured at 0 to 13 days of storage using Minolta and reflectance measurements.
The statistical analysis was performed according to the approach described by Langsrud et al. (J. Appl. Statist. (2007) 34:1275-1296) and implemented in the 50-50 MANOVA software (http://www.langsrud.com/stat/program.htm). This program handles mixture designs as generalized categorical variables (generalized ANOVA). When using this method one can always formulate equivalent models that use the individual mixture variables as ordinary (one degree of freedom) regression variables. Then one arbitrary mixture variable has to be omitted (slack variable). […]

[2] = Colour L*, a*, b* of treated ground beef, low oxygen packaging (Example 5); set-up: species or system cattle; conditions: citrate High level (0.025 mol/kg), low oxygen, adjusted mean ± standard error
Excerpt: as §1
The beef muscles were cut into pieces of approximately 10×5 cm and mixed to 14% w/w fat by using the fat tissues. Beef fat and pork fat tissues were ground twice with either raw beef from four young (16-19 months) or four old (46-81 months) cattle. […] The ground meat was blended manually with solutions (all at pH 5.8) with various TCA and glycolytic ingredients (see below).
as §2
[…] The solution was quickly and properly stirred into the minced meat and the blended system was subsequently packaged. […] Two reference samples with 40 ml of distilled water added to 360 gram of ground beef were also prepared each of the four production day, i.e. altogether 8 references were prepared. The samples were packaged in either low or high oxygen atmosphere.
as §3
The colour of the ground meat samples was measured with a Konica Minolta Chroma Meter CR 410 (Konica Minolta Sensing Inc., Osaka, Japan) using the glass light projection tube CR A 33e with wide illumination area (61 mm) and illuminant D65. The instrument was calibrated each day by measuring a white ceramic plate (L*=97.9; a*=0.05; b*=2). All colour measurements were made with 3 replicates (CIE, 1976, “Recommendations on uniform colour spaces-colour difference equations” (Vol. Supplement No. 2 to CIE). Paris, France: Commission Internationale de l'Eclairage).
as §4
The experimental design is visualized in FIG. 5. A 2^2 design (animal age and type of fat tissue) was split over 4 experimental days (FIG. 5, and Tables 10 and 11). To each corner of this 2^2 design was added a 3 component (succinate, pyruvate and glutamate-malate additions; 0, 50 and 100%) simplex lattice mixture design with 2 additional centre experiments as shown in FIG. 5.

Molecule `O=C(O)CC(O)(CC(=O)O)C(=O)O` [Citrate] has a DMb ([1]; Day 1) of 0.0 ± 0.0 %, an MMb ([1]; Day 1) of 6.6 ± 0.3% and an OMb ([1]; Day 1) of 93.4 ± 0.6%. For the same molecule, the DMb ([1]; Day 3) was 0.0 ± 0.0%, the MMb ([1]; Day 3) was 10.5 ± 0.6% and the OMb ([1]; Day 3) was 89.5 ± 0.6%. It also gave a DMb ([1]; Day 6) of 0.5 ± 0.3%, an MMb ([1]; Day 6) of 20.4 ± 0.6% and an OMb ([1]; Day 6) of 79.1 ± 0.7%. The DMb ([1]; Day 8) was 0.6 ± 0.2%, the MMb ([1]; Day 8) was 26.7 ± 0.7% and the OMb ([1]; Day 8) was 72.7 ± 0.8%. The “effect on myoglobin states (DMb, OMb, MMb), in words” value ([1]; high oxygen packaging) was “nominal higher values for OMb”, the “L*” value ([2]; Day 1) was 33.5 ± 0.3 and the “a*” value ([2]; Day 1) was 6.6 ± +.3*. For the same molecule, the “b*” value ([2]; Day 1) was 2.3 ± 0.2, the “L*” value ([2]; Day 3) was 33.0 ± 0.3 and the “a*” value ([2]; Day 3) was 7.1 ± 0.2. For the same molecule, the “b*” value ([2]; Day 3) was 2.3 ± 0.1*, the “L*” value ([2]; Day 6) was 33.3 ± 0.2* and the “a*” value ([2]; Day 6) was 7.5 ± 0.2. The “b*” value ([2]; Day 6) was 2.2 ± 0.1*, the “L*” value ([2]; Day 8) was 33.4 ± 0.2* and the “a*” value ([2]; Day 8) was 7.5 ± 0.2. For the same molecule, the “b*” value ([2]; Day 8) was 2.1 ± 0.1*, the “L*” value ([2]; Day 10) was 33.4 ± 0.2* and the “a*” value ([2]; Day 10) was 7.6 ± 0.2. The “b*” value ([2]; Day 10) was 2.1 ± 0.1, the “L*” value ([2]; Day 13) was 33.2 ± 0.3* and the “a*” value ([2]; Day 13) was 7.6 ± 0.4. The “b*” value ([2]; Day 13) was 2.1 ± 0.2*.
